Test results: patent US20240117005A1, “NOVEL BICYCLIC PEPTIDES” (THE COUNCIL OF THE QUEENSLAND INSTITUTE OF MEDICAL RESEARCH, priority 2021, published 2024)
Starred links: 1 amine or outer side, 2 acyl side, 3 side chain; linkers in the order of their positions; H or OH if unused. Positions of bridges follow the written chain, without caps; N, C: chain ends. No end group written: not given here. *: point of attachment. TBMB = c1c(C[*:1])cc(C[*:3])cc1C[*:2]; Myristyl = CCCCCCCCCCCCCC*

Assays:
CSC = CSC inhibition (Table 10 summary); format: cell-based; details: linear peptide derivatives; change stated relative to prototype PDL1-L1
[1] = tested on: cancer cell proliferation; test: Cancer cell proliferation (Table 12 summary); format: cell-based
Description: (§1) MDA-MB-231 cells were seeded at 4×10^3 cells/well into a 96-well flat bottom tissue culture plate in a final volume of 100 ul and left to adhere for 24 hours at 37° C. and 5% CO2. Cells were then treated with inhibitors for 72 hours at a final concentration of 200, 100, 50, 25, 12.5 or 6.25 μM. Following inhibition, media was removed and replaced with 100 μL/well of WST-1 cell proliferation reagent (Sigma-Aldrich, Cat# 11644807001) at 1:10 final dilution. Absorbance was recorded at 450 nm at 1, 2, 3, and 4 hour incubation periods using a microplate spectrophotometer (with 30 sec mix time). Data represent a single independent experiment performed in triplicate, results are graphed as mean +/− standard error (SE).
(§2) 4T1, CT26 or MDA-MB-231 cancer cell lines were treated with DL-2 or DL-2-D bicyclic inhibitors for 72 hours. Following inhibition, media was removed and replaced with WST-1 cell proliferation reagent. Absorbance was recorded at 450 nm after 1 hour. Data represent a single independent experiment performed in triplicate; results are graphed as mean +/− standard error (SE).

[2] = tested on: metastatic initiating cells (MICs); test: Flow cytometry for alanine walk (MIC inhibition); format: cell-based; details: alanine walk peptide inhibitors, FACS MIC signature
Description: FACS (Fluorescence-activated cell sorting) was performed on single-cell suspensions treated with a suite of alanine walk peptide inhibitors. Cells were stained an array of antibodies to target the metastatic initiating cell (MIC) signature including CD44, CD24, SNAIL, ABCB5, CSV and Hoechst dye to monitor cell viability. The FACS gating strategy used is adopted and modified from our signature for metastatic initiating cells (MICs), which sorted cells based on the MIC, therapeutic resistant phenotype, shown to be associated with metastatic and aggressive cancer cells. A flow cytometry gating strategy was always included in the analysis to exclude dead cells ([…]). Flow cytometry acquisition was performed on single cell suspensions using BLSR II. Analysis was performed using FlowJo software.

MDA-MB-231-Br cells = test: WST-1 cell proliferation assay, MDA-MB-231-Br; format: cell-based, human; details: WST-1
MDA-MB-231 cells = test: WST-1 cell proliferation assay, MDA-MB-231; format: cell-based, human; details: MDA-MB-231, WST-1, 72 hours
Description: as §1
(§3) (A) CT26, 4T1 or MDA-MB-231 Cells were treated with inhibitors for 72 hours. Following inhibition, media was removed and replaced with WST-1 cell proliferation reagent. Absorbance was recorded at 450 nm after 1 hour. Data represent a single independent experiment performed in triplicate. Results are graphed as mean +/− standard error (SE). B) MDA-MB-231 or CT26 cancer cells were treated with vehicle control, DL-2-Batch 1 (original stock), DL-2-Batch 2 (current stock), DL-2-TBAB or linear PDL1. Cells were permeabilised and were probed with the DUOLINK ligation assay. Cover slips were mounted on glass microscope slides with ProLong nucblue glass Antifade reagent (Life Technologies). PDL1Ac and IMPα1 DUOLINK Digital images were analysed using ImageJ software (ImageJ, NIH, Bethesda, MD, USA) and graphs represent the mean DOT Fluorescent Intensity in the nucleus or the cytoplasm compartments with significant differences calculated as per one-way ANOVA comparison. (C) MDA-MB-231 or CT26 cancer cells were treated with vehicle control, DL-2-Batch 1 (Original stock), DL-2-Batch 2 (current stock), DL-2-TBAB or linear PDL1. Cells were permeabilised and were probed with the DUOLINK ligation assay. Cover slips were mounted on glass microscope slides with ProLong nucblue glass Antifade reagent (Life Technologies). PDL1-unmodified and IMPα1 DUOLINK digital images were analysed using ImageJ software (ImageJ, NIH, Bethesda, MD, USA) and graphs represent the mean DOT fluorescent intensity in the nucleus or the cytoplasm compartments with significant differences calculated as per one-way ANOVA comparison.
as §2
Cells weretreated with inhibitors for 48 hours. Following inhibition, media was removed and replaced with WST-1 cell proliferation reagent. Absorbance was recorded at 450 nm after 1 hour.

[3] = tested on: PDL1-PTM1, CSV and ALDH1A1 in 4T1 cells; test: Imaging of PDL1-PTM1, CSV and ALDH1A1 after cyclic PDL1 peptide; format: cell-based; details: 4T1 breast cancer cell line (Table 11 comment)
Description: Breast cancer cell line, 4T1, was treated with vehicle control or cyclic PDL1 peptide (cyclic PDL1) at a concentration of 50 μM. Cells were permeabilised and were probed with primary antibodies against PDL1-PTM1, CSV and ALDH1A1. Cover slips were mounted on glass microscope slides with ProLong nucblue glass Antifade reagent (Life Technologies). PDL1-PTM1, CSV and ALDH1A1 digital images were analysed using ImageJ software (ImageJ, NIH, Bethesda, MD, USA). Graphs represent the mean fluorescent intensity in the nucleus or the cytoplasm compartments with significant differences calculated as per Mann-Whitney analysis or the ratio of nuclear to cytoplasmic staining for PDL1-PTM1 which was calculated using the formula F(n−b)/(c−b) wherein n=nuclear staining, b=background, c=cytoplasmic. A ratio of 1 or high indicates nuclear bias, under 1 indicates cytoplasmic bias.

CD8+ TIM3+ T cells = test: FACS of CD8+ TIM3+ T cells from 4T1 tumour mouse model; format: in vivo; details: 4T1 TNBC tumour mouse model
Text: FIG. 32 provides graphical representations showing a comparison between DL-2 and DL-2-D. (A) As per FIGS. 24, and 25, above. (B) Fixed cells were washed with PBS and resuspended in PBS containing 1% BSA prior to antibody staining. Primary antibodies targeting CD8, TIM3 and PD1 antibodies were used. Appropriate antibody controls were used for all flow cytometry stain and acquisition. All samples were acquired on an LSR Fortessa cytometer (BD Biosciences, Franklin Lakes, NJ), and data were analyzed using FlowJo v10 software

4T1 cells = test: WST-1 cell proliferation assay, 4T1; format: cell-based; details: 4T1, WST-1, 72 hours
Description: as §3, §2

CT26 cells = test: WST-1 cell proliferation assay, CT26; format: cell-based, mouse; details: CT26, WST-1, 72 hours
Description: as §3, §2

[4] = Rat plasma stability assay; format: in vitro ADME; details: 37° C., up to 24 hours
Description: The stability assay was performed as per CRO's protocol (Creative Peptides). In brief, peptide stability assays were carried out using a rat plasma model with the following steps: • 3.6 mL of human plasma and rat plasma were thawed at room temperature and centrifuged at 3000 rpm for 15 min. Remove the precipitate. • Prepare 20 mL termination solution ([…]) and precool at 4° C. • Prepare the following solution:
• Incubate the tube at 37° C. Take out 200 μL plasma sample at desired time points up to 24 hours respectively (e.g., at 0, 15, 30, 60, 120 mins, etc). Add 400 μL pre-cooled stop solution, centrifuge at 3000 rpm, 4° C. for 15 min, and carefully aspirate the supernatant. • The supernatant samples were filtered with a 0.22 μm filter membrane, and then analysed by LC-MS in order to determine the percentage of the test compound remaining.
The stability assay was performed using the same protocol as described above in Example 7.

[5] = tested on: 4T1 TNBC metastatic cancer cells; test: 4T1 model of metastatic breast cancer in mice; format: in vivo, mouse
Description: 4T1 Gold standard immunotherapy resistant mouse model mice obtained from the ARC, Perth and mice were inoculated with 4T1 TNBC metastatic cancer cells. DL-2 is supplied lyophilised in glass vials and was reconstituted using sodium chloride injection BP (0.9% saline) to make a stock solution of 10 mg/mL using a needle/syringe, DL-2 was mixed by inversion. Animals were then injected by intraperitoneal injection at 10, 20 or 30 mg/kg daily and rested over the weekend. Mice were monitored over time for body weight and tumour volume.
4T1 Gold standard immunotherapy resistant mouse model mice obtained from the ARC, Perth and mice were inoculated with 4T1 TNBC metastatic cancer cells. DL-2 or DL-2-D is supplied lyophilised in glass vials was reconstituted using sodium chloride injection BP (0.9% saline) to make a stock solution of 10 mg/mL using a needle/syringe, DL-2 was mixed by inversion. Animals were then injected by intraperitoneal injection and mice were monitored over time for body weight and tumour volume for DL-2 at 20 mg/kg every second day with resting over the weekend in conjunction with αPD1 or isotype control (10 mg/kg).
DL-2-D was mixed by inversion. Animals were then injected by intraperitoneal injection and mice were monitored over time for body weight and tumour volume for DL-2-D at a concentration of 20 mg/kg every two days (identical regime to αPD1) in conjunction with αPD1 or isotype control (10 mg/kg).

[6] = DL-2-D (20 mg/kg) and αPD1 (10 mg/kg) combination therapy, day 20

ACLTFIFCRLRKGRCMMDVKK [DL2-Linear, Myristyl- DL2 linear peptide]
Potency (CSC inhibition) (CSC): No change

ACLTFIFRLRCKGRMCMDVGKK (Myristyl-ACLTFIFRLRCKGRMCMDVGKK; linker 2-11-16 via TBMB) [DL-3, bicyclic peptide, Myristyl- N-terminus, TBMB backbone]
inhibition of cancer cell proliferation ([1]; Table 12 comment): DL-3 displayed no

AFIFRLRKGRMMDVKK
% Inhibition (number of metastatic initiating cells) [2]: 80.13%

LTFICFRLRKGRMCMDVCGKK (Myristyl-LTFICFRLRKGRMCMDVCGKK; linker 5-14-18 via TBMB) [DL-1, bicyclic peptide, Myristyl- N-terminus, TBMB backbone]
inhibition of proliferation (MDA-MB-231-Br cells): able to inhibit proliferation
inhibition of proliferation (MDA-MB-231 cells): able to inhibit proliferation
fold less potent than DL-2 at inhibiting cancer cell proliferation [1]: DL-1 was 3-fold less

LTFIFRLRKGRMMDVKKAGGA (Myristyl-LTFIFRLRKGRMMDVKKAGGA; not fully specified) [PDL1-L1 C2, Myristyl- cyclic peptide derivative, 4 linker amino acids]
inhibition of mesenchymal cancer markers and nuclear PDL1-PTM1 [3]: Failed to inhibit

TAIFRLRKGRMMDVKK
% Inhibition (number of metastatic initiating cells) [2]: 74.35%

TFAFRLRKGRMMDVKK
% Inhibition (number of metastatic initiating cells) [2]: 30.2%

TFIARLRKGRMMDVKK
% Inhibition (number of metastatic initiating cells) [2]: 4.4%

TFIFALRKGRMMDVKK
% Inhibition (number of metastatic initiating cells) [2]: 71.67%

TFIFRARKGRMMDVKK
% Inhibition (number of metastatic initiating cells) [2]: 35.6%

TFIFRLAKGRMMDVKK
% Inhibition (number of metastatic initiating cells) [2]: 43.98%

TFIFRLRAGRMMDVKK
% Inhibition (number of metastatic initiating cells) [2]: 0%

TFIFRLRKARMMDVKK
% Inhibition (number of metastatic initiating cells) [2]: 41.38%

TFIFRLRKGAMMDVKK
% Inhibition (number of metastatic initiating cells) [2]: 62.69%

TFIFRLRKGRAMDVKK
% Inhibition (number of metastatic initiating cells) [2]: 74.35%

TFIFRLRKGRMADVKK
% Inhibition (number of metastatic initiating cells) [2]: 100%

TFIFRLRKGRMMAVKK
% Inhibition (number of metastatic initiating cells) [2]: 100%

TFIFRLRKGRMMDAKK
% Inhibition (number of metastatic initiating cells) [2]: 81.9%

TFIFRLRKGRMMDVAK
% Inhibition (number of metastatic initiating cells) [2]: 48.7%

TFIFRLRKGRMMDVKA
% Inhibition (number of metastatic initiating cells) [2]: 58.03%

acltfifcrirckGrcmmdvkk [DL-2-D]
inhibition of proliferation (MDA-MB-231 cells): significantly inhibit the proliferation
abrogating the TIM3+ immunotherapy-resistant signature in CD8+ T cells (CD8+ TIM3+ T cells): more potent than DL-2
inhibition of proliferation (4T1 cells): significantly inhibit the proliferation
inhibition of proliferation (CT26 cells): significantly inhibit the proliferation
stability in rat plasma (percentage of test compound remaining) [4]: significantly more stable
lung metastasis [5, 6]: reduces
primary tumour burden [5, 6]: reduces
lung, liver or spleen weights ([5]; DL-2-D alone): does not alter
body weight ([5]; DL-2-D and anti-PD1 combination therapy): No change
tumour volume ([5]; DL-2-D as a monotherapy agent): significantly inhibits
lung, liver or spleen weights ([5]; DL-2-D in combination with anti-PD1): does not alter
body weight ([5]; DL-2-D monotherapy): No change

acltfifcrlrkGrcmmdvkk [DL2-D-Linear]
Potency (CSC inhibition) (CSC): No change

kkvdmmcrGkrlrcfiftlca [DL2-D Ret Linear]
Potency (CSC inhibition) (CSC): No change
